This is an account of results in BindingDB's records for doi:10.1016/s0960-894x(01)00185-8 (Dupont Pharmaceuticals, 2001).

Assay [1] has as its target Cyclin-dependent kinase 2/G1/S-specific cyclin-E1 (Homo sapiens, UniProt P24941). As to the kind of experiment: Kinase Inhibition Assay.
Experimental: (§1) The enzyme was assayed with substrate GST-Rb in the presence of 50 mM ATP/[gamma-32P] ATP, and capturing the 32-P labeled reaction products on GSH-Sepharose beads. […] Use of 32P-labeled ATP allows this transfer to be monitored by scintillation counting.
For assay [2], the target named is Cyclin-dependent kinase 4/G1/S-specific cyclin-D1 (Homo sapiens, UniProt P11802). The experiment in a line: Kinase Inhibition Assay.
Cyclin-dependent kinase 4/G1/S-specific cyclin-D1, sequence (P11802 whole entry): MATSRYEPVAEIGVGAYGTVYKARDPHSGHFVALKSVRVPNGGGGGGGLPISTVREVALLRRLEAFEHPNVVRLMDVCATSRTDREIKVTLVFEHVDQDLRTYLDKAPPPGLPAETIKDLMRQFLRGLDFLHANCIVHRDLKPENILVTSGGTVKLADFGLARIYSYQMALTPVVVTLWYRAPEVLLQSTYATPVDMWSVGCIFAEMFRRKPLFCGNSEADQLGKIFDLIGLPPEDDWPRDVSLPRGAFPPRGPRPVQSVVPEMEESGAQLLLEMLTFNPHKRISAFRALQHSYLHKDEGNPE
Cyclin-dependent kinase 4/G1/S-specific cyclin-D1, sequence (P24385 whole entry, further chain): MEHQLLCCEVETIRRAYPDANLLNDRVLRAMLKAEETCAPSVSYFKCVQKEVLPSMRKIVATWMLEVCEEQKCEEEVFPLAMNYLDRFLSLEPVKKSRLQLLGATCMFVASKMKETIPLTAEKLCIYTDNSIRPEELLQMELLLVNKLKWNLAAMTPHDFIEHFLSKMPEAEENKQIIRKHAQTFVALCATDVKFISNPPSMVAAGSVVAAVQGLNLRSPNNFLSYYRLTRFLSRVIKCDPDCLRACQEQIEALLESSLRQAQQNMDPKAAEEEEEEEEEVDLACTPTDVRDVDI
Experimental: as §1

With `CC(C)(C)Nc1nc(C(F)(F)F)nc2ccc(-c3cccc(-c4cccnc4)c3)cc12` [N-tert-butyl-6-[3-(pyridin-3-yl)phenyl]-2-(trifluoromethyl)quinazolin-4-amine], the half-inhibitory concentration (IC50) (usually the concentration that gives 50% inhibition) in assay [1] was found to be 1.2 µM; in assay [2], 8.3 µM.
